# Measurements from patent US20150011541A1, “PIPECOLATE-SULFONAMIDES FOR TREATMENT OF PSYCHIATRIC DISORDERS” (Max-Planck-Gesellschaft zur Förderung der Wissenschaften …, priority 2011, published 2015).
# Like-named read-outs stand apart in the source and are kept apart here.
# Experiments:
# human FKBP51FK1 = biological target: T1, human FKBP51FK1 (Homo sapiens, UniProt Q13451); assay: Fluorescence polarization assay, binding to FK1 domain of FKBP51; details: for IC50: binding affinity, fluorescence polarization assay; for inhibition at 5 µM: read-out: FKBP 51 FK1 % inhibition
# T1 sequence (Q13451 42-130 limits assumed): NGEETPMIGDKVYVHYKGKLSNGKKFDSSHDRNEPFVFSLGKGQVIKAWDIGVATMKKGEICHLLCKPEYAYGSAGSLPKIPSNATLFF
# human FKBP52FK1 = biological target: T2, human FKBP52FK1 (Homo sapiens, UniProt Q02790); assay: Fluorescence polarization assay, binding to FK1 domain of FKBP52; details: for IC50: binding affinity, fluorescence polarization assay; for inhibition at 5 µM: read-out: FKBP52 FK1 % inhibition
# T2 sequence (Q02790 50-138 limits assumed): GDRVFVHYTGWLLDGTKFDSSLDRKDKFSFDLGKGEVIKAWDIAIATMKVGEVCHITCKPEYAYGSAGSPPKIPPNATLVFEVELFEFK
# [1] = at a concentration of 5 μM, library testing
IC50 (human FKBP51FK1) [µM],IC50 (human FKBP52FK1) [µM],Compound,other results
62.8 ± 10.7,,"COc1ccc(CC[C@@H](OC(=O)[C@@H]2CCCCN2S(=O)(=O)c2ccc(-c3ncccn3)cc2)c2cccc(OCC(=O)O)c2)cc1OC [Compound 1, 2-(3-((R)-3-(3,4-dimethoxyphenyl)-1-((S)-1-(4-(pyrimidin-2-yl)phenylsulfonyl)piperidine-2-carbonyloxy)propyl)phenoxy)acetic acid]",inhibition at 5 µM (human FKBP51FK1; [1]): 16.3%; inhibition at 5 µM (human FKBP52FK1; [1]): 15.2%
67.1 ± 12.1,,COc1ccc(CC[C@@H](OC(=O)[C@@H]2CCCCN2S(=O)(=O)c2cc3ccccc3s2)c2cccc(OCC(=O)O)c2)cc1OC [Compound 5],inhibition at 5 µM (human FKBP51FK1; [1]): 12.4%; inhibition at 5 µM (human FKBP52FK1; [1]): 15.2%
18.2 ± 8.8,37.3 ± 13.6,"COc1ccc(CC[C@@H](OC(=O)[C@@H]2CCCCN2S(=O)(=O)c2cccc(F)c2)c2cccc(OCC(=O)O)c2)cc1OC [Compound 11, 2-(3-((R)-3-(3,4-dimethoxyphenyl)-1-((S)-1-(3-fluorophenylsulfonyl)piperidine-2-carbonyloxy)propyl)phenoxy)acetic acid]",
3.06 ± 0.25,17.1 ± 11,"COc1ccc(CC[C@@H](OC(=O)[C@@H]2CCCCN2S(=O)(=O)c2cccc(Br)c2)c2cccc(OCC(=O)O)c2)cc1OC [Compound 12, 2-(3-((R)-1-((S)-1-(3-bromophenylsulfonyl)piperidine-2-carbonyloxy)-3-(3,4-dimethoxyphenyl)propyl)phenoxy)acetic acid]",
18.8 ± 2.4,20.2 ± 3.5,"COc1ccc(S(=O)(=O)N2CCCC[C@H]2C(=O)O[C@H](CCc2ccc(OC)c(OC)c2)c2cccc(OCC(=O)O)c2)cc1Cl [Compound 16, 2-(3-((R)-1-((S)-1-(3-chloro-4-methoxyphenylsulfonyl)piperidine-2-carbonyloxy)-3-(3,4-dimethoxyphenyl)propyl)phenoxy)aceticacid]",
18.4 ± 1.4,26.5 ± 4.9,"COc1ccc(CC[C@@H](OC(=O)[C@@H]2CCCCN2S(=O)(=O)c2ccc3nc(C)sc3c2)c2cccc(OCC(=O)O)c2)cc1OC [Compound 27, 2-(3-((R)-3-(3,4-dimethoxyphenyl)-1-((S)-1-(2-methylbenzo[d]thiazol-6-ylsulfonyl)piperidine-2-carbonyloxy)propyl)phenoxy)acetic acid]",
14.7 ± 1.1,66.5 ± 27.1,"COc1ccc(CC[C@@H](OC(=O)[C@@H]2CCCCN2S(=O)(=O)c2ccc3[nH]c(=O)sc3c2)c2cccc(OCC(=O)O)c2)cc1OC [Compound 28, 2-(3-((R)-3-(3,4-dimethoxyphenyl)-1-((S)-1-(2-oxo-2,3-dihydrobenzo[d]thiazol-6-ylsulfonyl)piperidine-2-carbonyloxy)propyl)phenoxy)aceticacid]",

# The next lines start with the compound.
Compound,IC50 (human FKBP51FK1) [µM],IC50 (human FKBP52FK1) [µM],other results
"2-(3-((R)-1-((S)-1-(3-cyanophenylsulfonyl)piperidine-2-carbonyloxy)-3-(3,4-dimethoxyphen-yl)propyl)phenoxy)acetic acid [Compound 6]",28.5 ± 9.6,69.9 ± 65.4,
"2-(3-((R)-1-((S)-1-(benzo[d]thiazol-5-ylsulfonyl)piperidine-2-carbonyloxy)-3-(3,4-dimethoxy phenyl)propyl)phenoxy)acetic acid [Compound 3]",11.6 ± 1.1,32.5 ± 3.5,FKBP 51 FK1 % inhibition (human FKBP51FK1; [1]): 25.5%; FKBP52 FK1 % inhibition (human FKBP52FK1; [1]): 16.1%
COc1ccc(CC[C@@H](OC(=O)[C@@H]2CCCCN2S(=O)(=O)c2cccc(Cl)c2)c2cccc(OCC(=O)O)c2)cc1OC [Compound 2],30.7 ± 15.7,32.8 ± 14.5,inhibition at 5 µM (human FKBP51FK1): 17.5%; inhibition at 5 µM (human FKBP52FK1): 18%
"COc1ccc(CC[C@@H](OC(=O)[C@@H]2CCCCN2S(=O)(=O)c2cc(Cl)cc(Cl)c2)c2cccc(OCC(=O)O)c2)cc1OC [Compound 13, 2-(3-((R)-1-((S)-1-(3,5-dichlorophenylsulfonyl)piperidine-2-carbonyloxy)-3-(3,4-dimethoxy-phenyl)propyl)phenoxy)acetic acid]",22.6 ± 8.2,14.3 ± 1.8,
"COc1ccc(CC[C@@H](OC(=O)[C@@H]2CCCCN2S(=O)(=O)c2cc(Cl)c(O)c(Cl)c2)c2cccc(OCC(=O)O)c2)cc1OC [Compound 21, 2-(3-((R)-1-((S)-1-(3,5-dichloro-4-hydroxyphenylsulfonyl)piperidine-2-carbonyloxy)-3-(3,4-dimethoxyphenyl)propyl)phenoxy)acetic acid]",15.1 ± 1.4,56.6 ± 12.2,
"COc1ccc(CC[C@@H](OC(=O)[C@@H]2CCCCN2S(=O)(=O)c2cc(Cl)c(OC)c(Cl)c2)c2cccc(OCC(=O)O)c2)cc1OC [Compound 22, 2-(3-((R)-1-((S)-1-(3,5-dichloro-4-methoxyphenylsulfonyl)piperidine-2-carbonyloxy)-3-(3,4-dimethoxyphenyl)propyl)phenoxy)acetic acid]",16.4 ± 1.7,17.7 ± 1.6,
"COc1ccc(CC[C@@H](OC(=O)[C@@H]2CCCCN2S(=O)(=O)c2cc(Cl)c(NC(C)=O)c(Cl)c2)c2cccc(OCC(=O)O)c2)cc1OC [Compound 23, 2-(3-((R)-1-((S)-1-(4-acetamido-3,5-dichlorophenylsulfonyl)piperidine-2-carbonyloxy)-3-(3,4-dimethoxyphenyl)propyl)phenoxy)acetic acid]",8.9 ± 0.9,15.6 ± 2.2,
"COc1ccc(CC[C@@H](OC(=O)[C@@H]2CCCCN2S(=O)(=O)c2cc3c(c([N+](=O)[O-])c2)OCC3)c2cccc(OCC(=O)O)c2)cc1OC [Compound 25, 2-(3-((R)-3-(3,4-dimethoxyphenyl)-1-((S)-1-(7-nitro-2,3-dihydrobenzofuran-5-ylsulfonyl)piperidine-2-carbonyloxy)propyl)phenoxy)acetic acid]",27.2 ± 3.1,43.9 ± 10.1,
"COc1ccc(CC[C@@H](OC(=O)[C@@H]2CCCCN2S(=O)(=O)c2cc(Cl)c(O)c(Cl)c2)c2cccc(OCCN3CCOCC3)c2)cc1OC [Compound 33, (S)-((R)-3-(3,4-dimethoxyphenyl)-1-(3-(2-morpholinoethoxy)phenyl)propyl)1-(3,5-dichloro-4-hydroxyphenylsulfonyl)piperidine-2-carboxylate]",0.456 ± 0.05,0.71 ± 0.1,
"COc1ccc(CC[C@@H](OC(=O)[C@@H]2CCCCN2S(=O)(=O)c2cc(Cl)c(NC(C)=O)c(Cl)c2)c2cccc(OCCN3CCOCC3)c2)cc1OC [Compound 34, (S)-((R)-3-(3,4-dimethoxyphenyl)-1-(3-(2-morpholinoethoxy)phenyl)propyl)1-(4-acetamido-3,5-dichlorophenylsulfonyl)piperidine-2-carboxylate]",12.3 ± 18.9,8.3 ± 6.8,
"COc1ccc(CC[C@@H](OC(=O)[C@@H]2CCCCN2S(=O)(=O)c2ccc3[nH]c(=O)sc3c2)c2cccc(OCCN3CCOCC3)c2)cc1OC [Compound 35, (S)-((R)-3-(3,4-dimethoxyphenyl)-1-(3-(2-morpholinoethoxy)phenyl)propyl)1-(2-oxo-2,3-dihydrobenzo[d]thiazol-6-ylsulfonyl)piperidine-2-carboxylate]",1.3 ± 0.13,2.5 ± 0.38,
"COc1ccc(CC[C@@H](OC(=O)[C@@H]2CCCCN2S(=O)(=O)c2ccc(Cl)cc2)c2cccc(OCC(=O)O)c2)cc1OC [Compound 36, 2-(3-((R)-1-((S)-1-(4-chlorophenylsulfonyl)piperidine-2-carbonyloxy)-3-(3,4-dimethoxyphenyl)propyl)phenoxy)acetic acid]",,,inhibition at 5 µM (human FKBP51FK1): 11.7%; inhibition at 5 µM (human FKBP52FK1): 15.2%
"COc1ccc(CC[C@@H](OC(=O)[C@@H]2CCCCN2S(=O)(=O)c2ccc(F)cc2)c2cccc(OCC(=O)O)c2)cc1OC [Compound 38, 2-(3-((R)-3-(3,4-dimethoxyphenyl)-1-((S)-1-(4-fluorophenylsulfonyl)piperidine-2-carbonyloxy)propyl)phenoxy)acetic acid]",,,inhibition at 5 µM (human FKBP51FK1; [1]): 4.3%; inhibition at 5 µM (human FKBP52FK1; [1]): 6.6%
"COc1ccc(CC[C@@H](OC(=O)[C@@H]2CCCCN2S(=O)(=O)c2ccc(C(F)(F)F)cc2)c2cccc(OCC(=O)O)c2)cc1OC [Compound 40, 2-(3-((R)-3-(3,4-dimethoxyphenyl)-1-((S)-1-(4-(trifluoromethyl)phenylsulfonyl)piperidine-2-carbonyloxy)propyl)phenoxy)acetic acid]",,,inhibition at 5 µM (human FKBP51FK1; [1]): 8.9%; inhibition at 5 µM (human FKBP52FK1; [1]): 12.3%
"COc1ccc(CC[C@@H](OC(=O)[C@@H]2CCCCN2S(=O)(=O)c2ccc(Oc3ccccc3)cc2)c2cccc(OCC(=O)O)c2)cc1OC [Compound 41, 2-(3-((R)-3-(3,4-dimethoxyphenyl)-1-((S)-1-(4-phenoxyphenylsulfonyl)piperidine-2-carbonyloxy)propyl)phenoxy)acetic acid]",,,inhibition at 5 µM (human FKBP51FK1; [1]): 7.2%; inhibition at 5 µM (human FKBP52FK1; [1]): 15.2%
"COc1ccc(CC[C@@H](OC(=O)[C@@H]2CCCCN2S(=O)(=O)c2cccnc2)c2cccc(OCC(=O)O)c2)cc1OC [Compound 42, 2-(3-((R)-3-(3,4-dimethoxyphenyl)-1-((S)-1-(pyridin-3-ylsulfonyl)piperidine-2-carbonyloxy)propyl)phenoxy)acetic acid]",,,inhibition at 5 µM (human FKBP51FK1): 6.6%; inhibition at 5 µM (human FKBP52FK1): 9.5%
"COc1ccc(CC[C@@H](OC(=O)[C@@H]2CCCCN2S(=O)(=O)c2ccc(Oc3ccccc3)nc2)c2cccc(OCC(=O)O)c2)cc1OC [Compound 43, 2-(3-((R)-3-(3,4-dimethoxyphenyl)-1-((S)-1-(6-phenoxypyridin-3-ylsulfonyl)piperidine-2-carbonyloxy)propyl)phenoxy)acetic acid]",,,inhibition at 5 µM (human FKBP51FK1; [1]): 3.7%; inhibition at 5 µM (human FKBP52FK1; [1]): 11.4%
"COc1ccc(CC[C@@H](OC(=O)[C@@H]2CCCCN2S(=O)(=O)c2ccc(-c3ccccc3)nc2)c2cccc(OCC(=O)O)c2)cc1OC [Compound 44, 2-(3-((R)-3-(3,4-dimethoxyphenyl)-1-((S)-1-(6-phenylpyridin-3-ylsulfonyl)piperidine-2-carbonyloxy)propyl)phenoxy)acetic acid]",,,inhibition at 5 µM (human FKBP51FK1; [1]): 2.6%; inhibition at 5 µM (human FKBP52FK1; [1]): 8.5%
